The values below come from ChEMBL document CHEMBL4828744, “Design, synthesis and biological evaluation of pyridinylmethylenepiperidine derivatives as potent 5-HT1F receptor agonists for migraine therapy” (Eur J Med Chem, 2021).

Active and inactive are the calls of the source.

Data set [1] addresses T1, 5-hydroxytryptamine receptor 1F (Homo sapiens, UniProt P30939).
T1 sequence (P30939 whole entry): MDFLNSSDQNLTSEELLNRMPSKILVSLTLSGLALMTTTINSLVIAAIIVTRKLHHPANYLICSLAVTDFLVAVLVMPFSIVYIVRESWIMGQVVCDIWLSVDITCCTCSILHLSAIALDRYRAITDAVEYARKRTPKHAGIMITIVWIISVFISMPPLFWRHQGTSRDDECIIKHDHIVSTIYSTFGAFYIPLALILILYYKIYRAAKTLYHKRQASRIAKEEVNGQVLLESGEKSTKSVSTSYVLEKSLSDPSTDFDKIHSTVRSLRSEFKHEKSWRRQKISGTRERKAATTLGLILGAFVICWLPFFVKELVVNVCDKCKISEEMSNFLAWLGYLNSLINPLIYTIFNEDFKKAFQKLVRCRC
Kind of data set: Binding affinity to human 5HT1F receptor.

Data set [2] in a line: AUC(0 to t) in Sprague-Dawley rat at 5 mg/kg, ig measured for 24 hrs by LC-MS/MS analysis. The data set is classed as ADME, organism-based. More on the design: time 24 hrs, dose 5 mg/kg. The settings on record: in vivo, po.
Data set [3] in a line: AUC (0 to 24hrs) in monkey at 1 mg/kg, ig by LC-MS/MS analysis. The data set is classed as ADME, organism-based, Macaca mulatta. Also on record: time < 24 hr, route intragastric, dose 1 mg/kg. The settings on record: rhesus monkey, in vivo, po.
Data set [4] in a line: Cmax in Sprague-Dawley rat at 1 mg/kg, iv measured for 24 hrs by LC-MS/MS analysis. The data set is classed as ADME, organism-based. More on the design: route intravenous, dose 1 mg/kg, time 24 hrs. The settings on record: in vivo.
Data set [5] in a line: AUC (0 to 24hrs) in Sprague-Dawley rat at 50 mg/kg, ig by LC-MS/MS analysis. It is filed as ADME, organism-based. More on the design: time < 24 hr, route intragastric, dose 50 mg/kg. The settings on record: in vivo, po.
The nature of data set [6]: Half life in Sprague-Dawley rat at 1 mg/kg, iv measured for 24 hrs by LC-MS/MS analysis. The data set is classed as ADME, organism-based. The settings on record: in vivo.
Data set [7] deals with Rattus norvegicus. Kind of data set: Antimigraine activity against electrical stimulation of trigeminal ganglion migraine Wistar rat model assessed as reduction in dural plasma protein extravasation at 0.01 to 0.1 ug/kg, po measured after 45 mins by confocal fluorescence microscopic analysis. It is filed as functional, organism-based. The settings on record: dose 0.01-0.1 µg/kg.

The nature of data set [8]: Toxicity in Sprague-Dawley rat assessed as effect on body weight at 150 mg/kg/day, ig administered for 28 days. It is filed as organism-based. The settings on record: in vivo, po, 672 h, time 28 day.
The target in data set [9] is 5-hydroxytryptamine receptor 1B (Homo sapiens, UniProt P28222). Kind of data set: Binding affinity to human 5HT1B receptor.
Sequence of 5-hydroxytryptamine receptor 1B (P28222 whole entry): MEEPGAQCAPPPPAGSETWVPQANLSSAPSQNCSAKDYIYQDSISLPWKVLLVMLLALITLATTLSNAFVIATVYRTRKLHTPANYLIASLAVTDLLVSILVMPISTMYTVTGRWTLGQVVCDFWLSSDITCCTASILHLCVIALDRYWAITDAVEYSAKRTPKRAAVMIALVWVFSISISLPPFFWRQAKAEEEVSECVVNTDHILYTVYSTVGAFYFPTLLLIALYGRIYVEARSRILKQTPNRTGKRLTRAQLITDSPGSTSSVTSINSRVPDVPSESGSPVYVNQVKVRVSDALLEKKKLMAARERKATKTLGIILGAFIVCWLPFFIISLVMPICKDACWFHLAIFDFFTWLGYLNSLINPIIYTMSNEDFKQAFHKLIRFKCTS
A short description of data set [10]: Toxicity in Sprague-Dawley rat assessed as effect on food intake at 150 mg/kg/day, ig administered for 28 days. It is filed as organism-based. The settings on record: in vivo, po, 672 h, time 28 day.
Data set [11] deals with T2, 5-hydroxytryptamine receptor 3A (Homo sapiens, UniProt P46098).
T2 sequence (P46098 whole entry): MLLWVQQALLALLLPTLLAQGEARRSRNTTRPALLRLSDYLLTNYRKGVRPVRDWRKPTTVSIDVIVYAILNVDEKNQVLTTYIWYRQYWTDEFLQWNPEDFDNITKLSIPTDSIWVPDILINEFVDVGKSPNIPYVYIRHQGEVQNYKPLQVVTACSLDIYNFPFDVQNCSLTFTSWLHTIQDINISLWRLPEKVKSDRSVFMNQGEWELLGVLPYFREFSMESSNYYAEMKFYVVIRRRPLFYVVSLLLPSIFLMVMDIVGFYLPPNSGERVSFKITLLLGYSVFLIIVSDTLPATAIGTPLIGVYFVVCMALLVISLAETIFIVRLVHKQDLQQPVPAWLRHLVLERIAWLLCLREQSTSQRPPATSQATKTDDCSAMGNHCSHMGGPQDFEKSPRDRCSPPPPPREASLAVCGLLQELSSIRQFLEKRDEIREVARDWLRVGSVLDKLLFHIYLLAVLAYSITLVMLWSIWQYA
The experiment in a line: Binding affinity to human 5HT3 receptor.

For data set [12], the system named is Rattus norvegicus. Kind of data set: Antimigraine activity against electrical stimulation of trigeminal ganglion migraine Wistar rat model assessed as reduction in c-Fos-positive cells at 10 ug/kg, po measured after 60 mins by confocal fluorescence microscopic analysis. It is filed as functional, organism-based. The settings on record: dose 10.0 µg/kg.
The nature of data set [13]: Cmax in Sprague-Dawley rat at 5 mg/kg, ig measured for 24 hrs by LC-MS/MS analysis. It is filed as ADME, organism-based. Also on record: route intragastric, time 24 hrs, dose 5 mg/kg. The settings on record: in vivo, po.
For data set [14], the species on record is Homo sapiens. Kind of data set: Selectivity ratio of IC50 for human 5HT2A receptor to IC50 for human 5HT1F receptor.
The target in data set [15] is 5-hydroxytryptamine receptor 2A (Homo sapiens, UniProt P28223). Kind of data set: Binding affinity to human 5HT2A receptor.
Sequence of 5-hydroxytryptamine receptor 2A (P28223 whole entry): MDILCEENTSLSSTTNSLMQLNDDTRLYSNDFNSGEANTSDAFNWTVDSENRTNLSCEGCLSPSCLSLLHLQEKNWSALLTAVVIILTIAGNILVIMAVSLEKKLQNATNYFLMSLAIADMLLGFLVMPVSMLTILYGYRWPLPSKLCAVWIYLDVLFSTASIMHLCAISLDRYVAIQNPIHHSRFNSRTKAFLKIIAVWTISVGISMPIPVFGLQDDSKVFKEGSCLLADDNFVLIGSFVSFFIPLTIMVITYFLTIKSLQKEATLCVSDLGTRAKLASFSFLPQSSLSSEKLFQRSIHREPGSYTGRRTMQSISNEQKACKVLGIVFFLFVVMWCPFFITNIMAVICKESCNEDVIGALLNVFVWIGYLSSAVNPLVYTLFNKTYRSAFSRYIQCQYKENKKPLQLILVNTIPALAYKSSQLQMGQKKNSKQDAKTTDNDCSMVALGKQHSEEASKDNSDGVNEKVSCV
Data set [16] is described as follows: Cmax in Sprague-Dawley rat at 150 mg/kg, ig administered for 28 days by LC-MS/MS analysis. It is filed as ADME, organism-based. More on the design: route intragastric, dose 150 mg/kg, time 28 day. The settings on record: in vivo, po.

Usually IC50 stands for the point on the concentration scale where inhibition reaches its midpoint. The AUC(0-t) is the area under the concentration-time curve up to a stated or last time point. In general, Cmax refers to the peak of the concentration-time curve. By half-life is commonly meant the time needed for the level to fall by half in the phase considered. `CN1CCC(=C(F)c2cccc(NC(=O)c3c(F)cc(F)cc3F)n2)CC1`: the IC50 in [1] was 0.32 nM; in data set [9], 2160 nM; in [11], above 10000 nM; in data set [15], 4870 nM. Further, the AUC(0-t) at 24 h was 404 ng·h/mL in data set [2], 3200 ng·h/mL in data set [3] and 5290 ng·h/mL in [5]. For the same molecule, the Cmax was determined as 110 ng/mL in [4], 88 ng/mL in data set [13] and 841 ng/mL in data set [16]. The half-life in data set [6] was 1.33 h. Also, the outcome in data set [7] and in data set [12] was Active. In addition, the Activity result in data set [8] and in data set [10] was “Non-Toxic” in each case. The Ratio IC50 in data set [14] is above 10000.
